{
  "source": "ChEMBL document CHEMBL5137025",
  "about": "“Tuberculosis Drug Discovery: Challenges and New Horizons” (J Med Chem, 2022)",
  "key": {"[1]": {"tested_on": "Mycobacterium tuberculosis", "assay": "Antibacterial activity against Mycobacterium tuberculosis assessed as reduction in resistance generation frequency", "assay_type": "functional"}, "[2]": {"tested_on": "Mycobacterium tuberculosis", "assay": "Antibacterial activity against Mycobacterium tuberculosis Erdman (TMCC 107) assessed as reduction in resistance generation frequency", "assay_type": "functional"}, "[3]": {"tested_on": "Mycobacterium tuberculosis", "assay": "Antibacterial activity against Mycobacterium tuberculosis Erdman (TMCC 107) in Mtb infection C3HeB/FeJ mouse model assessed as reduction in resistance generation frequency administered for 8 weeks relative to control", "assay_type": "functional", "design": "scale not given: the % may be the effect or the level left"}, "[4]": {"tested_on": "Mycobacterium tuberculosis", "assay": "Antibacterial activity against extensively drug-resistant Mycobacterium tuberculosis clinical isolate assessed as inhibition of bacterial growth in presence of SMARt-420", "assay_type": "functional"}, "[5]": {"tested_on": "Mycobacterium tuberculosis", "assay": "Antibacterial activity against multidrug-resistant Mycobacterium tuberculosis clinical isolate assessed as inhibition of bacterial growth in presence of SMARt-420", "assay_type": "functional"}, "[6]": {"tested_on": "Mycobacterium tuberculosis", "assay": "Antibacterial activity against Ethionamide-resistant Mycobacterium tuberculosis Beijing strain in acute Mtb infection BALB/c mouse model assessed as reduction in log10 CFU in lungs at 50 mg/kg, po for 3 weeks in presence of Ethionamide", "assay_type": "functional"}, "[7]": {"tested_on": "Mycobacterium tuberculosis", "assay": "microbe, parasite or virus in culture"}, "[8]": {"tested_on": "Mycobacterium tuberculosis", "assay": "microbe, parasite or virus in culture", "remark": "listed apart in the source"}, "[9]": {"tested_on": "Mycobacterium tuberculosis", "assay": "Antibacterial activity against EMB-resistant Mycobacterium tuberculosis assessed as inhibition of bacterial growth", "assay_type": "functional"}},
  "data": [
    {"smiles": "Cc1ccn(C(C)c2nnc(Nc3ccn(Cc4c(F)cccc4Cl)n3)s2)n1", "note": "(stereo not drawn)", "values": [
      {"measurement": "Activity", "setting": "[1]", "result": "4 10^-8No_unit"}
    ]},
    {"smiles": "CCNC(=N)NC(=O)Nc1c(CC)cccc1CC", "values": [
      {"measurement": "Activity", "setting": "[1]", "result": ">1.5", "unit": "log10CFU"}
    ]},
    {"smiles": "Cc1n[nH]c2ccc(NS(=O)(=O)CCCCF)cc12", "values": [
      {"measurement": "Activity", "setting": "[1]", "result": "6 10^-8No_unit"}
    ]},
    {"smiles": "CCS(=O)(=O)N1N=Cc2ccc(Oc3ccc(C(F)(F)F)cc3/C=N/O)cc2B1O", "values": [
      {"measurement": "Activity", "setting": "[2]", "result": "4 10^-7No_unit"},
      {"measurement": "Activity", "setting": "[3]", "result": 0.04, "unit": "%"},
      {"measurement": "MIC", "setting": "[4]", "result": 0.15, "unit": "µM"},
      {"measurement": "MIC", "setting": "[5]", "result": 0.15, "unit": "µM"}
    ]},
    {"smiles": "O=C(CCC(F)(F)F)N1CCC2(CC1)CC(c1ccccc1)=NO2", "values": [
      {"measurement": "Activity", "setting": "[6]", "result": 4, "unit": "log10CFU"}
    ]},
    {"smiles": "CCc1cc(C(N)=S)ccn1", "note": "[ETHIONAMIDE]", "values": [
      {"measurement": "MIC", "setting": "[7]", "result": 48, "unit": "µM"},
      {"measurement": "MIC", "setting": "[8]", "result": 48, "unit": "µM"}
    ]},
    {"smiles": "NNC(=O)c1ccncc1", "note": "[ISONIAZID]", "values": [
      {"measurement": "Activity", "setting": "[1]", "result": "4 10^-5No_unit"},
      {"measurement": "Activity", "setting": "[3]", "result": 29, "unit": "%"}
    ]},
    {"smiles": "CC(C)=CCC/C(C)=C/CNCCNC1C2CC3CC(C2)CC1C3", "note": "(stereo not drawn) [SQ109]", "values": [
      {"measurement": "MIC", "setting": "[9]", "result": 2.4, "unit": "µM"}
    ]}
  ]
}
